This is an account of results in US20260297095A1, “NOVEL PYRROLOTRIAZINE DERIVATIVE AND USE THEREOF” (Pelemed Co., Ltd., priority 2024, published 2026).

One test concerns the target YES1 kinase (Homo sapiens, UniProt P07947). Description: YES1 kinase inhibition, ADP Glo assay (Promega). The class given is biochemical. The conditions noted are these: for YES1 enzyme, % inhibition, 10 nM / inhibition at 0.01 µM: compound 10 nM; for YES1 enzyme, % inhibition, 100 nM / inhibition at 0.1 µM: compound 100 nM; for IC50: class symbols, read-out: YES1 enzyme, IC50; for inhibition at 0.01 µM: read-out: YES1 enzyme, % inhibition, 10 nM; for inhibition at 0.1 µM: read-out: YES1 enzyme, % inhibition, 100 nM; for YES1 kinase inhibition at 1 nM (in words) / inhibition at 0.001 µM: compound 1 nM; for inhibition at 0.001 µM: read-out: YES1 enzyme, % inhibition, 1 nM. Summed up:
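ADP-Glo luminescence after a 40 min room-temperature reaction of YES1 with ATP and substrate (buffer with MnCl2 and DTT; 10 min compound preincubation) was used as readout. Percent inhibition at 1, 10 and 100 nM compound was calculated relative to negative control after background subtraction, and IC50 values derived.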
For orientation: ADP-Glo first removes unused ATP, then detects ADP through luciferase.

Test [1] deals with KYSE-70 esophageal cancer cell line. Description: Cell growth inhibition of KYSE-70 (Sulforhodamine B). The test is classed as cell-based. To be noted: KYSE-70, 72 hours, read-out: KYSE70 GI50. Summed up: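 KYSE-70 cells (YES1-amplified) in RPMI-1640 with 10% FBS were seeded 24 h before treatment with compound at 0.0046–10 µM final. After 72 h, cells were TCA-fixed and stained with sulforhodamine B, with absorbance read at 510 nm. GI50 was derived with a time-zero plate set to 0% and the vehicle control to 100%, in duplicate tests.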

The target of another test is T1, TEAD (Homo sapiens).
T1 construct: lentiviral TEAD luciferase reporter read-out
T1 sequence (P07947 whole entry): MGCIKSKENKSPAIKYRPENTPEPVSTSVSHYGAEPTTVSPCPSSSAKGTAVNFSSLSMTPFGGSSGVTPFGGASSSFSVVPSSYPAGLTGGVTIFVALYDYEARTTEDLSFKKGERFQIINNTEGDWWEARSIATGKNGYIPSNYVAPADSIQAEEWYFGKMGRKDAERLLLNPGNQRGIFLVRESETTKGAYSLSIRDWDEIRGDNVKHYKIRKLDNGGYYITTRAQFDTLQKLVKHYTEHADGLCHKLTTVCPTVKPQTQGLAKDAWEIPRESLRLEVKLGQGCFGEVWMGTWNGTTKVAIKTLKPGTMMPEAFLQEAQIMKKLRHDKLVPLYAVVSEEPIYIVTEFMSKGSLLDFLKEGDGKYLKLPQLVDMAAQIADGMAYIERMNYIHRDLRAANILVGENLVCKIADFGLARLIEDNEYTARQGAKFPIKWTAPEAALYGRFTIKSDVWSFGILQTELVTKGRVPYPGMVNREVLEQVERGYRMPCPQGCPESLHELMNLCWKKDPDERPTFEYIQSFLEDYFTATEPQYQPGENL
The test is described as follows: TEAD inhibition, KYSE-70 TEAD luciferase reporter cell line. The class given is cell-based. The conditions noted are these: KYSE-70 TEAD luciferase reporter cells, 24 hours, normalized by cell viability; read-out: KYSE70 TEAD IC50. As to the method:
To evaluate the inhibitory activity on TEAD activity in KYSE-70 cells in which YES1 is overexpressed, the following experiment was performed.
TEAD luciferase reporter lentivirus (BPS Bioscience; TEAD luciferase reporter lentivirus) was co-cultured with KYSE-70 cell line for 48 hours, and then 1 μg/ml puromycin (Invitrogen) was added to the culture to induce cell death only in cells that were not infected with the virus, thereby generating a KYSE-70 cell line into which the TEAD luciferase reporter was introduced. The KYSE-70 TEAD luciferase reporter cell line was cultured in RPMI-1640 (Capricorn) supplemented with 10% FBS (Cellgro). The cells were seeded 24 hours prior to compound treatment into two 96-well F-bottom clear plates (Greiner) and two white clear bottom 96-well plates (Greiner), at 20,000 cells in 180 μL medium per well.
The 10 mM compound was diluted 100-fold in medium to prepare a 100 μM compound, then placed in a 96-well plate and further 3-fold diluted in medium to prepare a compound plate with concentrations ranging from 0.046 μM to 100 μM. 20 μL of each compound from the drug plate was injected into the cell-seeded plates to prepare the final concentrations 0.0046 μM to 10 μM. For TEAD activity measurement, 24 hours after compound treatment on the white clear bottom 96-well plate, 100 μL of medium was removed from each well, and 100 μL of One-Step™ Luciferase Assay System solution was added. After reacting at room temperature for 15 minutes, luminescence intensity was measured using a microplate reader (VICTOR X3, PerkinElmer). Since TEAD activity values needed to be normalized by cell viability, a cell viability assay was also performed. For measuring cell viability, 24 hours after compound treatment on the 96-well F-bottom clear plate, 50 μL of 33% trichloroacetic acid was added to each well and was fixed by incubating at 4° C. for 1 hour. After that, the plate was washed 5 times with sterile water, and 100 μL of 0.04% Sulforhodamine B solution in 1% acetic acid was added to react for 1 hour to stain the cells. After staining, the plates were washed 4 times with 1% acetic acid solution and completely dried. Then the Sulforhodamine B bound to cellular proteins was completely dissolved with 10 mM Tris base solution (pH 10.5). The absorbance was measured at a wavelength of 510 nm using a microplate reader (TECAN, sunrise microplate reader). The TEAD activity value and cell viability value were normalized, and a graph was drawn using the GraphPad Prism version 5.0 program, and the IC50 value was calculated.
In general terms: In a reporter assay the amount or activity of a reporter protein is the signal.

Where two headings read alike, the source gives them in different places.

YES1 kinase, sequence (P07947 whole entry): as above

A word on the GI50: it is the concentration giving 50% growth inhibition. The term IC50 denotes the concentration that gives 50% inhibition. “tert-butyl (4-(4-amino-7-(6-(dimethylamino)pyridin-3-yl)pyrrolo[2,1-f][1,2,4]triazin-5-yl)-2-methoxyphenyl)carbamate [Example 6]”: at YES1 kinase, the “YES1 enzyme, % inhibition, 10 nM” value stood at 41% and the “YES1 enzyme, % inhibition, 100 nM” value is on record as 46%. Further, in test [1], the GI50 was in the range of 1000 to 10000 nM. For the same compound, the IC50 on TEAD (Homo sapiens) is at most 100 nM.

With “tert-butyl (4-(4-amino-7-(4-(methylamino)piperidin-1-yl)pyrrolo[2,1-f][1,2,4]triazin-5-yl)-2-methoxyphenyl)carbamate [Example 58]”, the IC50 at YES1 kinase and at TEAD (Homo sapiens) was at most 100 nM each time. For the same compound, the GI50 in test [1] fell in the range of 100 to 1000 nM.

“tert-butyl (4-(4-amino-7-(4-(dimethylamino)-3-methoxyphenyl)pyrrolo[2,1-f][1,2,4]triazin-5-yl)-2-methoxyphenyl)carbamate [Example 5]”: at YES1 kinase, the “YES1 enzyme, % inhibition, 10 nM” value came out at 38% and the “YES1 enzyme, % inhibition, 100 nM” value came to 68%. Besides, in test [1], the GI50 was in the range of 100 to 1000 nM. The IC50 on TEAD (Homo sapiens) was in the range of 100 to 1000 nM.

Consider “tert-butyl (4-(4-amino-7-(4-(dimethylamino)-4-methylpiperidin-1-yl)pyrrolo[2,1-f][1,2,4]triazin-5-yl)-2-methoxyphenyl)carbamate [Example 13]”, for which, on YES1 kinase, the “YES1 enzyme, % inhibition, 10 nM” value was found to be 77% and the “YES1 enzyme, % inhibition, 100 nM” value came out at 93%. Further, the GI50 in test [1] was at most 100 nM. Moreover, the half-maximal inhibitory concentration (IC50) on TEAD (Homo sapiens) was at most 100 nM.

As to “tert-butyl (4-(4-amino-7-(4-aminopiperidin-1-yl)-6-methylpyrrolo[2,1-f][1,2,4]triazin-5-yl)-2-methoxyphenyl)carbamate [Example 78]”, the GI50 in test [1] is at most 100 nM. For the same compound, the IC50 on TEAD (Homo sapiens) is at most 100 nM.

One may read the inhibition as the percentage by which the read-out fell short of the control. On to `COc1cc(-c2cc(-c3ccc4c(c3)oc(=O)n4C)n3ncnc(N)c23)ccc1NC(=O)OC(C)(C)C` [Example 9, tert-butyl (4-(4-amino-7-(3-methyl-2-oxo-2,3-dihydrobenzo[d]oxazol-6-yl)pyrrolo[2,1-f][1,2,4]triazin-5-yl)-2-methoxyphenyl)carbamate], for which, at YES1 kinase, the inhibition at 0.01 µM was 39% and the inhibition at 0.1 µM stood at 57%. Besides, the GI50 in test [1] (Homo sapiens) was 1000 to 10000 nM.

Consider `COc1cc(-c2cc(N3CC[C@@H](N)[C@@H](F)C3)n3ncnc(N)c23)ccc1NC(=O)OC(C)(C)C` [Example 46, tert-butyl (4-(4-amino-7-((3S,4R)-4-amino-3-fluoropiperidin-1-yl)pyrrolo[2,1-f][1,2,4]triazin-5-yl)-2-methoxyphenyl)carbamate], for which, on YES1 kinase, the inhibition at 0.01 µM was 52% and the inhibition at 0.1 µM turned out to be 77%. Besides, the 50% growth inhibitory concentration (GI50) in test [1] (Homo sapiens) is 100 to 1000 nM.

For the compound `COc1cc(-c2cc(N3CCC(CC(=O)O)CC3)n3ncnc(N)c23)ccc1NC(=O)OC(C)(C)C` [Example 101, 2-(1-(4-amino-5-(4-((tert-butoxycarbonyl)amino)-3-methoxyphenyl)pyrrolo[2,1-f][1,2,4]triazin-7-yl)piperidin-4-yl)acetic Acid], at YES1 kinase, the “YES1 kinase inhibition at 1 nM (in words)” value (“YES1 kinase inhibition” below) is “could be inhibited even at a low concentration of 1 nM”, the inhibition at 0.001 µM stood at 16% and the inhibition at 0.01 µM is 40%. The concentration for 50% growth inhibition (GI50) in test [1] (Homo sapiens) is over 10000 nM.

For `Nc1ncnn2c(N3CCC(N)CC3)cc(-c3ccc(Oc4ccccc4)cc3)c12` [Example 135, 7-(4-aminopiperidin-1-yl)-5-(4-phenoxyphenyl)pyrrolo[2,1-f][1,2,4]triazin-4-amine], at YES1 kinase, the inhibition at 0.01 µM was 62% and the inhibition at 0.1 µM turned out to be 87%. Besides, in test [1] (Homo sapiens), the GI50 was at most 100 nM.

As for `COc1cc(-c2cc(N[C@H]3CC[C@H](N(C)C)C3)n3ncnc(N)c23)ccc1NC(=O)OC(C)(C)C` [Example 112, tert-butyl (4-(4-amino-7-(((1S,3S)-3-(dimethylamino)cyclopentyl)amino)pyrrolo[2,1-f][1,2,4]triazin-5-yl)-2-methoxyphenyl)carbamate], at YES1 kinase, the “YES1 kinase inhibition” value was “could be inhibited even at a low concentration of 1 nM”, the inhibition at 0.001 µM came out at 29% and the inhibition at 0.01 µM was determined as 60%. The GI50 in test [1] (Homo sapiens) was 100 to 1000 nM.

In the case of `COc1cc(-c2cc(N3CCC4(CC3)CC(=O)N4)n3ncnc(N)c23)ccc1NC(=O)OC(C)(C)C` [Example 56, tert-butyl (4-(4-amino-7-(2-oxo-1,7-diazaspiro[3.5]nonan-7-yl)pyrrolo[2,1-f][1,2,4]triazin-5-yl)-2-methoxyphenyl)carbamate], on YES1 kinase, the IC50 is at most 100 nM, the inhibition at 0.01 µM came out at 23% and the inhibition at 0.1 µM was determined as 68%. Moreover, the GI50 in test [1] (Homo sapiens) was at most 100 nM.

For `COc1cc(-c2cc(-c3ccc(N(C)C)cc3C)n3ncnc(N)c23)ccc1NC(=O)OC(C)(C)C` [Example 2, tert-butyl (4-(4-amino-7-(4-(dimethylamino)-2-methylphenyl)pyrrolo[2,1-f][1,2,4]triazin-5-yl)-2-methoxyphenyl)carbamate], on YES1 kinase, the inhibition at 0.01 µM came to 21% and the inhibition at 0.1 µM is 28%. Besides, the GI50 in test [1] (Homo sapiens) was over 10000 nM.

Take `COc1cc(-c2cc(N3CCC4(CCCN4)CC3)n3ncnc(N)c23)ccc1NC(=O)OC(C)(C)C` [Example 23, tert-butyl (4-(4-amino-7-(1,8-diazaspiro[4.5]decan-8-yl)pyrrolo[2,1-f][1,2,4]triazin-5-yl)-2-methoxyphenyl)carbamate]: on YES1 kinase, the inhibition at 0.01 µM was found to be 58% and the inhibition at 0.1 µM is 87%. The GI50 in test [1] (Homo sapiens) is at most 100 nM.

For the compound `COc1cc(-c2cc(N3CCC(O)CC3)n3ncnc(N)c23)ccc1NC(=O)OC(C)(C)C` [Example 90, tert-butyl (4-(4-amino-7-(4-hydroxypiperidin-1-yl)pyrrolo[2,1-f][1,2,4]triazin-5-yl)-2-methoxyphenyl)carbamate], at YES1 kinase, the “YES1 kinase inhibition” value is “could be inhibited even at a low concentration of 1 nM”, the inhibition at 0.001 µM was 12% and the inhibition at 0.01 µM stood at 47%. Besides, the GI50 in test [1] (Homo sapiens) fell in the range of 100 to 1000 nM.

As for `CNC1(C)CCN(c2cc(-c3ccc(NC(=O)OC(C)(C)C)c(OC)c3)c3c(N)ncnn23)CC1` [Example 105, tert-butyl (4-(4-amino-7-(4-methyl-4-(methylamino)piperidin-1-yl)pyrrolo[2,1-f][1,2,4]triazin-5-yl)-2-methoxyphenyl)carbamate], the IC50 on YES1 kinase was at most 100 nM. For the same compound, in test [1] (Homo sapiens), the concentration for 50% growth inhibition (GI50) was at most 100 nM.

In the case of `CCN(CC)C1CCN(c2cc(-c3ccc(NC(=O)OC(C)(C)C)c(OC)c3)c3c(N)ncnn23)CC1` [Example 14, tert-butyl (4-(4-amino-7-(4-(diethylamino)piperidin-1-yl)pyrrolo[2,1-f][1,2,4]triazin-5-yl)-2-methoxyphenyl)carbamate], at YES1 kinase, the inhibition at 0.01 µM is 19% and the inhibition at 0.1 µM was determined as 77%. In addition, the GI50 in test [1] (Homo sapiens) lay within 100 to 1000 nM.

Take `CNC1CCN(CCc2cc(-c3ccc(NC(=O)OC(C)(C)C)c(OC)c3)c3c(N)ncnn23)CC1` [Example 99, tert-butyl (4-(4-amino-7-(2-(4-(methylamino)piperidin-1-yl)ethyl)pyrrolo[2,1-f][1,2,4]triazin-5-yl)-2-methoxyphenyl)carbamate]: at YES1 kinase, the inhibition at 0.01 µM amounted to 71% and the inhibition at 0.1 µM was 90%. In addition, the GI50 in test [1] (Homo sapiens) was at most 100 nM.

For `COc1cc(-c2cc(N3CCC(CO)CC3)n3ncnc(N)c23)ccc1NC(=O)OC(C)(C)C` [Example 102, tert-butyl (4-(4-amino-7-(4-(hydroxymethyl)piperidin-1-yl)pyrrolo[2,1-f][1,2,4]triazin-5-yl)-2-methoxyphenyl)carbamate], on YES1 kinase, the “YES1 kinase inhibition” value is given as “could be inhibited even at a low concentration of 1 nM”, the inhibition at 0.001 µM was found to be 11% and the inhibition at 0.01 µM was 39%. Moreover, the GI50 in test [1] (Homo sapiens) lay within 100 to 1000 nM.
